Source: patent US20060241183A1, “Compositions and methods of using D-DOPA to treat Parkinson's disease” (priority 2004, published 2006)

Tests used:
[1] = tested on: urinary excretion of dopamine; conditions: D- and L-DOPA 50 mg/kg; cited from earlier work
[2] = tested on: striatal dopamine and its metabolites (DOPAC and HVA); test: Striatal dopamine, DOPAC and HVA after intraventricular administration of L-DOPA, D-DOPA or DHPPA; format: in vivo, Sprague-Dawley rats; conditions: for Striatal DOPAC / Striatal Dopamine / Striatal HVA: intraventricular, 10 μl, 2 h after treatment, mean ± S.E.M.
Protocol: The present example illustrates the possible involvement of DHPPA in the formation of dopamine from D-DOPA. […] In an attempt to examine an alternate pathway, four groups of Sprague-Dawley rats weighing 120-150 grams with cannulae permanently implanted into their lateral ventricles, according to the procedure described in Robinson et al., Physiol. Behav. 4, 123-124, (1969), were used. One group received 10 μl. of saline into the ventricles. The second, third and fourth groups received, intraventricularly, 200.μ.g of L-DOPA, D-DOPA and 3,4-dihydroxyphenylpyruvic acid (DHPPA) in 10 μl of saline, respectively. The rats were sacrificed two hours after treatment and their striata removed and analyzed. Striatal concentrations of dopamine, DOPAC and HVA were measured by massfragmentography according to the procedure set forth in Karoum, Neuromethods.

[3] = target: T1, L-amino acid decarboxylase (Homo sapiens, UniProt P20711); conditions: cited from earlier work
T1 sequence (P20711 1-480): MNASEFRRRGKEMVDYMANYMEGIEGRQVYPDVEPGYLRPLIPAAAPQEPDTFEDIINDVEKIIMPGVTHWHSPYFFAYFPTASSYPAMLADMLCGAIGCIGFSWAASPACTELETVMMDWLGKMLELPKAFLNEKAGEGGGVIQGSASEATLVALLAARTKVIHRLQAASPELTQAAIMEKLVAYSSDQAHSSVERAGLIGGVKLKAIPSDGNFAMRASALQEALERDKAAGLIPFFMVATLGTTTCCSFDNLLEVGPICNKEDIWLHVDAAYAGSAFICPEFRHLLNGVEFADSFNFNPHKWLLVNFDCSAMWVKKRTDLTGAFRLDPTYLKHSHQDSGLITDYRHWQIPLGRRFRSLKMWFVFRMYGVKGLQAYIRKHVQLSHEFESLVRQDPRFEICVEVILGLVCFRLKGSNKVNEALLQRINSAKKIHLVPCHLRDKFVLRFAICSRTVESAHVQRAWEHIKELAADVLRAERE

circling = conditions: rats with unilateral 6-hydroxydopamine lesion; cited from earlier work
[4] = tested on: striatal concentration of dopamine, DOPAC and HVA; test: Striatal dopamine, DOPAC and HVA after intragastric D- or L-DOPA plus carbidopa in rats with unilateral substantia nigra lesions; format: in vivo, male Sprague-Dawley Rats; conditions: for time for formation of dopamine in the striatum to reach its maximum concentration: after intragastric administration, inferred from DOPAC and HVA in lesion striata; for time to achieve maximum concentration of dopamine in the central nervous system: following intragastric administration; for increase of dopamine and its metabolites in the intact striata, D- versus L-DOPA / time at which dopamine content in the intact striata peaked / change of dopamine concentrations in the lesion striata: intragastric administration; for change of concentrations of DOPAC and HVA in the lesion striata: one hour after treatment
Excerpt: The present example illustrates the efficacy of the administration of D-DOPA of L-DOPA in vivo. In order to show the effectiveness of D-DOPA for increasing striatal dopamine content, male Sprague-Dawley Rats (Zivic-Miller, Allison Park, Pa.) weighing 300 to 400 grams were used. At least four weeks prior to the experiments, unilateral Substantia Nigra lesions were produced with intranigral administration of 6-hydroxydopamine according to the procedures set forth in Ungerstedt, Acta Physiol. Scand. (Suppl.) 367, 69 (1971).
The extent of unilateral Substantia Nigra lesions was tested by measuring apomorphine simulated rotation according to the procedures described in Understedt, supra, 1971; Freed et al. Ann. Neurol. 8, 510 (1980).
Either D- or L-DOPA was intragastrically administered to the rats in combination with carbidopa at doses of 50 mg/kg body weight of D-DOPA or L-DOPA and 5 mg/kg body weight of carbidopa, suspended in sterile water, to provide a pharmaceutically acceptable solution for administration. D- or L-DOPA was intragastrically administered to groups of five rats, which were sacrificed one or two hours after treatment. The left (intact) and right (lesioned) striata of these rats were excised and analyzed separately for the content of dopamine and its metabolites 3,4-dihydroxyphenylacetic acid (DOPAC) and homovanillic acid (HVA), according to the procedure as set forth in Karoum, Neuromethods, Vol. 2 (G. B. Baker, A. A. Boulton and J. M. Baker eds.), The Humana Press, Inc., New Jersey, page 305, 1985 (referred to hereafter as “Karoum, Neuromethods”).

[5] = tested on: striatal dopamine or its metabolites; test: Repeated intragastric administration of DHPPA plus carbidopa, striatal dopamine and metabolites; format: in vivo; conditions: concluded from repeated intragastric administration
hypothalamic dopamine = test: Hypothalamic dopamine and metabolites after intragastric D- and L-DOPA; format: in vivo; conditions: after intragastric administration
Excerpt: DHPPA can be formed from D-DOPA by either of two pathways, that is, direct transamination, or through deamination by D-amino acid oxidase, an enzyme widely distributed in the brain. The pattern of changes of striatal dopamine and its metabolites observed after intragastric administration of D- and L-DOPA are similar to those observed in the hypothalamus.

SMILES	reduction of urinary excretion of dopamine following D-DOPA compared with co-administration with L-DOPA [1]	Striatal DOPAC [2] [ng/mg protein]	Striatal Dopamine [2] [ng/mg protein]	Striatal HVA [2] [ng/mg protein]	substrate for L-amino acid decarboxylase [3]	induction of circling (circling)	time for formation of dopamine in the striatum to reach its maximum concentration [4]	time to achieve maximum concentration of dopamine in the central nervous system [4] [h]	increase of dopamine and its metabolites in the intact striata, D- versus L-DOPA [4]	time at which dopamine content in the intact striata peaked [4]	change of dopamine concentrations in the lesion striata [4]	change of concentrations of DOPAC and HVA in the lesion striata [4]	elevations of dopamine and DOPAC compared with D- or L-DOPA ([2]; intraventricular administration)	crossing of the blood brain barrier [5]	increases in hypothalamic DOPAC and HVA, L-DOPA versus D-DOPA (hypothalamic dopamine)
C[C@@](Cc1ccc(O)c(O)c1)(NN)C(=O)O [Carbidopa, carbidopa]	to a far greater degree														
N[C@H](Cc1ccc(O)c(O)c1)C(=O)O [D-DOPA]		19 ± 0.92	116 ± 5.1	4.8 ± 0.50	not a substrate	can induce circling	within one hour	2	to about the same extent	two hours	Neither D- nor L-DOPA increased dopamine concentrations	markedly increased			
O=C(O)C(=O)Cc1ccc(O)c(O)c1 [DHPPA, 3,4-dihydroxyphenylpyruvic acid]		96 ± 16.6	140 ± 11.0	23.3 ± 3.53									larger elevations	does not easily cross the blood brain barrier	
N[C@@H](Cc1ccc(O)c(O)c1)C(=O)O [L-DOPA]		59 ± 9.49	120 ± 7.4	22.2 ± 1.60			within one hour	1	to about the same extent	one hour	Neither D- nor L-DOPA increased dopamine concentrations	markedly increased			considerably higher
